Experimental data: US7619005B2, “Methods for treating cognitive impairment in humans with Multiple Sclerosis” (Cognition Pharmaceuticals LLC, priority 2000, dated 2009)

Experiments:
[1] = system: scopolamine treated rats; assay: Passive Avoidance in scopolamine treated rats (memory impairment); format: in vivo, rat
[2] = system: normal subjects; assay: CDR computerized cognitive assessment system, l-methamphetamine
Method: A randomized, double-blind, placebo-controlled, dose escalation study in human subjects, who were not suffering from an impairment in a memory or cognitive process (“normal subjects”), was conducted to assess the safety, tolerability and pharmacokinetics and improvement in cognitive processes, including memory, following the administration of l-methamphetamine (25 mg, 50 mg, 100 mg, 150 mg).
A selection of tasks from the CDR computerized cognitive assessment system was administered and parallel forms of the tests were presented on each testing session. […] All tasks were computer-controlled, the information was presented on high resolution screens, and the responses recorded via a response module containing two buttons, one marked ‘NO’ and the other ‘YES’. The tracking task additionally involved the use of a joystick. The test battery takes about 20-25 minutes to perform. The tests were administered in the following order: • Picture Presentation: A series of 20 pictures was presented on the screen at the rate of 1 every 3 seconds for the subject to remember. No data were recorded from this task. • Simple Reaction Time: The subject was instructed to press the ‘YES’ response button as quickly as possible every time the word ‘YES’ is presented on the screen. […] A series of digits was then presented in the center of the screen at the rate of 150 per minute and the subject was required to press the ‘YES’ button as quickly as possible every time the digit in the series matches the target digit. There were 45 targets in the series. The task lasted for 3 minutes. • Choice Reaction Time: Either the word ‘NO’ or the word ‘YES’ was presented on the screen and the subject was instructed to press the corresponding button as quickly as possible. There were 50 trials for which each stimulus word was chosen randomly with equal probability and there was a varying inter-stimulus interval. • Rapid Visual Information Processing: A series of digits was presented on the screen at the rate of 100 per minute. The subject had to detect targets consisting of consecutive sequences of either three odd digits or three even digits, and to report them by pressing the ‘YES’ button as quickly as possible. There were 32 targets. The task lasted for 4 minutes. • Tracking: The subject used a joystick to track a randomly moving target on the screen for one minute. The distance off-target per second was recorded. • Spatial Working Memory: A picture of a house was presented on the screen with four of its nine windows lit. The subject had to memorize the position of the lit windows. For each of the 36 subsequent presentations of the house, the subject was required to decide whether or not the one window that was lit was also lit in the original presentation. […]

[3] = system: Long-Evans rats; assay: Passive Avoidance test, injection immediately after training; settings: i.p. immediately after training; p values=0.007 (C105), 0.0004 (d-amphetamine), 0.03 (SN522)
[4] = system: Long-Evans rats; assay: Tailflick test of analgesia (SN522); format: in vivo, rat; settings: 0.25, 0.5, 2.5 and 5.0 mg/kg i.p.; 15, 30, 60 minutes
Method: The tail-flick response was assessed using a radiant heat tail flick monitor (Accuscan Instruments model TFS) equipped with a radiant heat element and two light beam sensors to detect tail movement.
In order to determine whether SN522 has any analgesic properties, rats (n=10 per treatment group) were injected with saline or SN522 (0.25, 0.5, 2.5 and 5.0 mg/kg, i.p.) and tested at four time points: immediately prior to injection, and again 15, 30, and 60 minutes following drug administration for a tail flick response (D'Amour, F. E., et al., J. Pharmacol. Exp. Ther. 72:174-179 (1941)). To test the tail-flick, the animal was placed on top of the Tail-Flick monitor and gently held in place with a cotton towel. The tail of the animal was placed in a shallow groove lying between the two sensors and over the top of the radiant heat wire. The heat element was activated, and the latency for the animal to flick its tail out of the groove and away from the heat source was automatically recorded via activation of the sensors. The intensity of the heat source was adjusted so that the animal flicked its tail within 3-4 seconds. A 10 second cutoff was imposed to avoid tissue damage. The animal was returned to its home cage immediately following testing.

[5] = system: normal subjects; assay: Phase I studies of l-methamphetamine: RAVLT word recall
[6] = system: normal subjects; assay: Phase I studies of l-methamphetamine: safety and tolerability
[7] = system: Long-Evans rats; assay: Locomotor activity, activity monitoring chambers; format: in vivo, rat
Method: Activity monitoring was conducted in a Plexiglas open-field box measuring 30 by 30 cm. […] The location of the animal within the cage was detected by breaks in the infrared light beams. Light beams status information was collected and rapidly analyzed by a computerized activity monitoring system (VersaMax System, Accuscan Instruments.)
In order to determine whether SN522 had any adverse effects on locomotor or exploratory activity, rats were injected with saline or 0.25, 0.5, 2.5 and 5.0 mg/kg of SN522 and immediately afterwards placed into the activity monitoring chambers for a period of three hours.

[8] = system: Long-Evans rats; assay: Water Maze acquisition; format: in vivo, rat; settings: higher dose (0.5 mg/kg i.p.); p>0.05
Method: Water Maze testing (Morris, R., J. Neurosci Methods 11:47-60 (1984)) was conducted in a galvanized steel pool, painted white, measuring 180 cm in diameter and 60 cm in height. The pool was equipped with a removable circular platform (10 cm in diameter) made of clear Plexiglas. The pool was filled with water (26° C.) to a level of 1 cm above the surface of the platform. Nontoxic white paint was added to the water to obscure the platform's appearance. The pool was divided conceptually into four quadrants and the platform was located in the NW quadrant 30 cm from the pool wall. Extramaze cues were provided by large geometric shapes adhered to curtains that surrounded two sides of the pool, and by shelving units, a sink, and posters on the visible walls.
The training procedure involved placing the rat into the water, with the rat's head facing the wall of the pool, at one of four different starting points. The rat was allowed 60 seconds to locate the hidden platform. […] After 15 seconds spent on the platform at the end of each trial, the rat was removed from the pool and injected with saline or SN522 (0.25 and 0.5 mg/kg, i.p.). The rat was dried, and returned to its home cage. One trail was conducted each day for 10 days. The latency to reach the platform (escape latency) was recorded on each days training trial.

CN[C@H](C)Cc1ccccc1 [SN522, levo-methamphetamine]
performance vs animals treated with scopolamine and saline ([1]; 0.25, 0.5 and 1.0 mg/kg, p values=0.01, 0.04 and 0.007): performed significantly better than animals treated with scopolamine and saline | alleviation of scopolamine impairment (step-through latency) ([1]; SN522 i.p. immediately after training, log rank p=0.02 (FIG. 32)): effective at alleviating the impairment in the scopolamine-injected animals | Picture Recognition-Sensitivity Index vs placebo ([2]; 25 mg (p=0.0177) and 150 mg (p=0.0254) (FIG. 36)): significant benefits | Information Processing False Alarms vs placebo ([2]; 50 mg (p=0.0002), 100 mg (p=0.0001) and 150 mg (p=0.0001) (FIG. 38)): significant decrements against placebo | Information Processing Targets Detected vs placebo ([2]; 100 mg (p=0.0002) and 150 mg (p=0.0001) (FIG. 37)): significant benefits | speed of response (Total Speed score) ([2]; 25, 50, 100, 150 mg (FIG. 35)): dose-dependent effect on speed of response | dose that significantly improved performance on the passive avoidance task [3]: 0.5 mg/kg | pain sensitivity (tail flick latency) [4]: does not alter pain sensitivity | RAVLT memory scores ([5]; first Phase I study (1, 4, 16, 32 mg)): No difference in memory scores | RAVLT mean values vs placebo ([5]; second Phase I study (25, 50, 100 mg) (FIG. 34)): all dose groups have mean values greater than placebo at 30 minutes and 24 hours | tolerability ([6]; 150 mg dose, a few subjects in the second Phase I trial): not well tolerated | tolerability ([6]; first and second Phase I trials (1-100 mg)): generally well tolerated | activity relative to saline control ([7]; 0.5 mg/kg, p=0.028): only modest increases in activity | motor behavior (FIG. 23 description) ([7]; 0.25 and 0.5 mg/kg ip): no or modest changes in motor behavior | activity relative to saline control ([7]; 2.5 and 5.0 mg/kg, p<0.001): small, but significant increases in activity | activity (FIG. 23 description) ([7]; doses ten times over the therapeutic doses (2.5, 5.0 mg/kg ip)): only mild increases in activity | acquisition (escape latency) compared with saline group [8]: did not reveal any statistical differences
